Data: patent US20090011442A1, “TB diagnostics based on mycobacterium tuberculosis excretory secretory antigens and their specific immunoglobulins” (priority 2007, published 2009)

Test system: M. tb H37Ra bacilli
Assay type: cell-based, Mycobacterium tuberculosis H37Ra

| SMILES | MIC (mg/l)/Resistance Ratio | Resistance ratio |
| --- | --- | --- |
| CC[C@@H](CO)NCCN[C@@H](CC)CO [EMB, ethambutol] | >8 mg/L | – |
| NNC(=O)c1ccncc1 [INH, isoniazid] | >1 mg/L | – |
| NC(=O)c1cnccn1 [PZA] | >100 mg/L | – |
| CO[C@H]1/C=C/O[C@@]2(C)Oc3c(C)c(O)c4c(O)c(c(/C=N/N5CCN(C)CC5)c(O)c4c3C2=O)NC(=O)/C(C)=C\C=C\[C@H](C)[C@H](O)[C@@H](C)[C@@H](O)[C@@H](C)[C@H](OC(C)=O)[C@@H]1C [RMP, rifampicin] | >64 mg/L | – |
| [H]/N=C(/N)N[C@H]1[C@H](O)[C@@H](O)[C@H](O[C@@H]2O[C@@H](C)[C@](O)(C=O)[C@H]2O[C@@H]2O[C@@H](CO)[C@H](O)[C@@H](O)[C@@H]2NC)[C@@H](N/C(N)=N\[H])[C@@H]1O [SM, streptomycin] | – | ratio > 8 |
